Common to all, as to assay: Test A pre-/postemergence herbicide test
The subject of test [1] is wheat. The format is in vivo, Triticum aestivum. The following applies: for Wheat plant response rating: Preemergence, visual rating on 0 to 100 scale (0 no effect, 100 complete control); for plant injury at 125 g/ha / plant injury at 500 g/ha: Triticum aestivum, 240 h, read-out: Plant response rating, Wheat; for plant injury at 125 g/ha: 0 no effect, 100 complete control. In short, it runs like this:
(§1)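 Seeds sown in loam soil/sand blend received a preemergence directed soil spray of test chemical in non-phytotoxic solvent with surfactant; postemergence plants (2–10 cm, one- to two-leaf stage) were sprayed with the same formulation. After about 10 days in greenhouse, injury was rated visually versus untreated controls, 0 (no effect) to 100 (complete control).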

In test [2] the test system is pigweed. The format is in vivo, Amaranthus retroflexus. The following applies: for Pigweed plant response rating: Preemergence, visual rating on 0 to 100 scale (0 no effect, 100 complete control); for pest or weed control at 125 g/ha / pest or weed control at 500 g/ha: Amaranthus retroflexus, 240 h, read-out: Plant response rating, Pigweed. In short, it runs like this: as §1

Test [3] has as its system corn. The format is in vivo, Zea mays. The following applies: for Corn plant response rating: Preemergence, visual rating on 0 to 100 scale (0 no effect, 100 complete control); for Corn plant response rating (crop injury, 0 = no effect, 100 = complete kill) at 125 g/ha / Corn plant response rating (crop injury, 0 = no effect, 100 = complete kill) at 500 g/ha: Zea mays, 240 h. In a few lines:
as §1

[4] abbreviates: Postemergence, 500 g ai/ha, 0 to 100 scale (0 no effect, 100 complete control).
The mark [5] stands for this setting: preemergence, 500 g ai/ha, 0 to 100 scale.
[6] abbreviates: Postemergence, 125 g ai/ha, 0 to 100 scale, 0 is no effect, 100 is complete control.
The mark [7] stands for this setting: post-emergence, Postemergence, 125 g ai/ha, 0 to 100 scale.
Setting [8] is: post-emergence, Postemergence, 500 g ai/ha, 0 to 100 scale (0 no effect, 100 complete control).
Where [9] appears, read: pre-emergence, preemergence, 500 g ai/ha, 0 to 100 scale.
The mark [10] stands for this setting: post-emergence, Postemergence, 125 g ai/ha, 0 to 100 scale, 0 no effect, 100 complete control.

Structures are written as SMILES. Where two headings read alike, the source gives them in different places.

Regarding `O=C1NCC(c2ccc(F)c(F)c2)C1C(=O)Nc1ccccc1C(F)(F)F` (racemic) [Compound 6], the “Plant response rating, Wheat” value in test [1] (setting [4]) and in test [1] (setting [5]) was 0 each time. Further, the “Wheat plant response rating” value in test [1] (125 g ai/ha) came out at 0. The “Plant response rating, Pigweed” value in test [2] (setting [4]) is 10; in test [2] (setting [5]), 0. In test [2] (125 g ai/ha), the “Pigweed plant response rating” value turned out to be 0. Besides, the “Plant response rating, Corn” value amounted to 0 in test [3] (Postemergence, 125 g ai/ha, 0 to 100 scale, 0 no effect, 100 complete control); 0 in test [3] (setting [4]); 0 in test [3] (setting [5]). Also, the “Corn plant response rating” value in test [3] (125 g ai/ha) came out at 0.
Take `O=C1NCC(c2cccc(C(F)F)c2)C1C(=O)Nc1ccccc1F` (racemic) [Compound 210]: the “Plant response rating, Wheat” value in test [1] (setting [6]) amounted to 0. The “Wheat plant response rating (0 to 100 scale, 0 is no effect, 100 is complete control)” value in test [1] (Postemergence, 500 g ai/ha) worked out at 50. Moreover, the “Plant response rating, Pigweed” value stood at 0 in test [2] (125 g ai/ha, visual rating, 0 to 100 scale, 0 no effect, 100 complete control, approximately 10 days, preemergence); 0 in test [2] (setting [6]); 50 in test [2] (preemergence, 500 g ai/ha, 0 to 100 scale, 0 is no effect and 100 is complete control). The “Pigweed plant response rating (0 to 100 scale, 0 is no effect, 100 is complete control)” value in test [2] (Postemergence, 500 g ai/ha) stood at 20. Also, in test [3] (setting [6]), the “Plant response rating, Corn” value is recorded as 0. Further, the “Corn plant response rating (0 to 100 scale, 0 is no effect, 100 is complete control)” value in test [3] (Postemergence, 500 g ai/ha) is on record as 60.
Turning to `O=C1NCC(Br)(c2ccccc2)C1C(=O)Nc1ccccc1F` (stereo not drawn) [Compound 92, 4-bromo-N-(2-fluorophenyl)-2-oxo-4-phenyl-3-pyrrolidinecarboxamide], the “Wheat plant response rating” value in test [1] (125 g ai/ha) is recorded as 0. The plant injury at 125 g/ha in test [1] (setting [7]) came to 0%. The plant injury at 500 g/ha in test [1] (setting [8]) and in test [1] (setting [9]) was 0% each time. Also, the pest or weed control at 125 g/ha in test [2] (setting [10]) stood at 0%. The pest or weed control at 500 g/ha in test [2] (setting [8]) and in test [2] (setting [9]) was 0% in each case. The “Pigweed plant response rating” value in test [2] (125 g ai/ha) stood at 0. Also, the “Corn plant response rating” value in test [3] (125 g ai/ha) worked out at 0. Also, the Corn plant response rating (crop injury, 0 = no effect, 100 = complete kill) at 125 g/ha in test [3] (setting [10]) turned out to be 0%. The Corn plant response rating (crop injury, 0 = no effect, 100 = complete kill) at 500 g/ha in test [3] (setting [8]) and in test [3] (setting [9]) was 0% throughout.
Take `O=C1NCC(c2ccccc2)C1(Br)C(=O)Nc1ccccc1F` (stereo not drawn) [Compound 93, 3-bromo-N-(2-fluorophenyl)-2-oxo-4-phenyl-3-pyrrolidinecarboxamide]: the “Wheat plant response rating” value in test [1] (125 g ai/ha) amounted to 0. For the same compound, in test [1] (setting [7]), the plant injury at 125 g/ha amounted to 0%. Also, the plant injury at 500 g/ha in test [1] (setting [8]) and in test [1] (setting [9]) was 0% each time. In addition, in test [2] (setting [10]), the pest or weed control at 125 g/ha was 0%. Further, the pest or weed control at 500 g/ha in test [2] (setting [8]) and in test [2] (setting [9]) was 0% throughout. The “Pigweed plant response rating” value in test [2] (125 g ai/ha) worked out at 0. Also, the “Corn plant response rating” value in test [3] (125 g ai/ha) is 0. In test [3] (setting [10]), this compound had a Corn plant response rating (crop injury, 0 = no effect, 100 = complete kill) at 125 g/ha of 0%. Moreover, the Corn plant response rating (crop injury, 0 = no effect, 100 = complete kill) at 500 g/ha in test [3] (setting [8]) and in test [3] (setting [9]) was 0% each time.

For the origin of these results see patent US10294202B2, “Pyrrolidinones as herbicides” (FMC Corporation, priority 2013, dated 2019).
